Where “and” joins values, the source holds several entries; their conditions need not be identical. Equal entries are not always repeated.
Key:
[1] = system: mature mongrel dogs; assay: Experiment A: anesthetic recovery in dogs, 1.0 mg/kg compound of Formula Ia vs saline control; assay type: in vivo
Method: (§1) The patients utilized in the study were maintained in standard facilities with appropriate heating and ventilation. All dogs were placed under general anesthesia. The duration of anesthesia, time to extubation and time to sternal recumbency were recorded. Also noted were behaviors indicative of dysphoria such as vocalization and purposeless movement. A visual analog scale (“VAS”) was used to score the “quality” of the entire recovery period.
(§2) As used herein, the term “duration of anesthesia” is the time in minutes elapsed between intubation and cessation of anesthetic gases.
(§3) As used herein, the term “time to extubation” is the time in minutes elapsed between cessation of anesthetic gases and the need for removal of the endotracheal tube due to spontaneous swallowing.
(§4) As used herein, the term “time to Sternal Recumbency” is the time in minutes elapsed between cessation of anesthetic gases and the time the dog could physically place and maintain itself in sternal recumbency.
(§5) Evaluation of Recovery Period. A visual analog scale (“VAS”) was used to score the “quality” of the recovery period (0=smooth recovery, 10=rough recovery). Factors considered included, but were not limited to, vocalization, purposeless movement as well as the subjective degree of dysphoria experienced by the dog. The study director, who was blinded to treatment assignments, assigned recovery scores.
(§6) Statistical Analysis. Data from two trials conducted according to the above procedure were combined for analysis purposes. The data in the following Tables and Figures are mean±standard deviation. Duration of anesthesia, time to extubation and time to sternal recumbency data were analyzed using a paired t-test for means in Excel. Recovery VAS data were analyzed using SAS Statistical Software.
Experimental mature mongrel dogs, both male and female, weighing about 16-26 kilograms, were subcutaneously administered 1.0 mg/kg compound of Formula Ia one hour prior to preanesthetic administration. Control dogs were subcutaneously administered an equivalent volume of saline solution one hour prior to preanesthetic administration. The duration of anesthesia, time to extubation and time to sternal recumbency were recorded. The patients were monitored continuously during the anesthetic and recovery periods.
Preparation of 1.0 mg/kg compound of Formula Ia dose: Formulations were prepared by dissolving the compound of Formula Ia (10 mg/mL) and SBE-CD (10%) in distilled water to form a solution. The solution was sonicated to facilitate complete dissolution and filtered through a 0.22 μm Millipore syringe top filter prior to injection.
Administration of Dose: Solutions of compound of Formula Ia (1.0 mg/kg) or saline placebo (0.1 mL/kg) were administered by subcutaneous injection (“SC”).
Anesthetic Protocol: General anesthesia was induced using the following protocol: (1) One hour prior to preanesthetic administration, the patients were treated with subcutaneous administration of either a dose of compound of Formula Ia, as prepared above, or the saline control (0.1 mL/kg).
(2) Thirty (30) minutes prior to induction (preanesthetic), the patients were administered glycopyrrolate (0.01 mg/kg SC) and butorphanol (0.1 mg/kg SC).
(3) During the induction period, the patients were administered intravenous methohexital (8 mg/kg IV).
(4) The patients were then maintained with inhaled isoflurane at concentrations ranging from 0.5 to 3%.

[2] = system: geriatric beagles; assay: Experiment B: recovery from general anesthesia in beagle dogs, 0.5 mg/kg compound of Formula Ia; assay type: in vivo
Method: as §1, §2, §3, §4, §5, §6
Fifteen experimental geriatric beagles, weighing 9-16 kilograms and undergoing anesthesia for dental prophylaxis, were used in this study. All dogs were fasted overnight prior to anesthesia. Experimental dogs were subcutaneously administered 0.5 mg/kg compound of Formula Ia at the time of pre-anesthetic medication. Control dogs received no treatment in addition to routine pre-anesthesia medications. The duration of anesthesia, time to extubation and time to sternal recumbency were recorded.
Preparation of 0.5 mg/kg compound of Formula Ia dose: Formulations were prepared by dissolving the compound of Formula Ia (10 mg/mL) and SBE-CD (10%) in distilled water to form a solution. The solution was sonicated to facilitate complete dissolution and filtered through a 0.22 μm Millipore syringe top filter prior to injection.
Administration of Dose: Solutions of compound of Formula Ia (0.5 mg/kg) were administered by subcutaneous injection.
Anesthetic Protocol: General anesthesia was induced and maintained using the following protocol:
(1) Preanesthetic administration: the Experimental patients were treated with subcutaneous administration of a dose of compound of Formula Ia, as prepared above. Both experimental and control patients were administered glycopyrrolate (0.01 mg/kg SC), butorphanol (0.1 mg/kg SC) and penicillin (30,000 units/kg SC)
(2) During the induction period, the patients were administered intravenous methohexital (8 mg/kg IV).
(3) The patients were then maintained with inhalant isoflurane at concentrations ranging from 0.5 to 3%.
The patients were monitored continuously during the anesthetic and recovery periods.

[3] = 1 mg/kg SC one hour prior to preanesthetic, individual dogs
[4] = 1 mg/kg SC, Mean ± SD of 12 dogs
[5] = 0.5 mg/kg SC at time of pre-anesthetic medication, beagle dogs

Structure (SMILES): COc1ccc(C(C)(C)C)cc1CN[C@H]1C2CCN(CC2)[C@H]1C(c1ccccc1)c1ccccc1 [Compound of Formula Ia, (2S,3S)-2-benzhydryl-N-(5-tert-butyl-2-methoxybenzyl)quinuclidin-3-amine]
- Time to extubation compared with saline group ([1]; 1 mg/kg SC): similar
- Time to sternal recumbency compared with saline group ([1]; 1 mg/kg SC): similar
- Time to Extubation [1, 3]: 2 min (4×) and 1 min (2×) and 3 min and 5 min (3×) and 4 min (2×)
- Time to Sternal Recumbency [1, 3]: 4 min and 3 min (4×) and 6 min (2×) and 1 min and 11 min and 9 min (2×) and 7 min
- Time to Extubation [1, 4]: 3 ± 2 min
- Time to Sternal Recumbency [1, 4]: 5 ± 3 min
- Recovery Quality ([1]; 1 mg/kg SC, VAS 0=smooth recovery, 10=rough recovery, individual dogs): 7.1 cm and 1.4 cm and 2.1 cm and 0.7 cm and 0.9 cm and 3.9 cm and 0.2 cm and 1.1 cm and 1.8 cm and 1.9 cm and 4.7 cm and 2.4 cm
- Recovery Quality ([1]; 1 mg/kg SC, VAS 0=smooth, 10=rough, Mean ± SD of 12 dogs, p=0.02 vs saline): 2.3 ± 2 cm
- Recovery scores compared with saline ([1]; 1 mg/kg SC, p=0.02): significantly lower recovery scores
- Recovery VAS scores lower than saline controls ([1]; 1 mg/kg SC, vs saline controls): 43.9%
- Time to extubation, experimental vs control group ([2]; 0.5 mg/kg SC): no statistical difference
- Time to sternal recumbency, experimental vs control group ([2]; 0.5 mg/kg SC): no statistical difference
- Visual analog score for smoothness of recovery period, experimental vs control group ([2]; 0.5 mg/kg SC): no statistical difference
- Time to Extubation Mean ± SD [2, 5]: 5.00 ± 4.47 min
- Time to Sternal Recumbency Mean ± SD [2, 5]: 10.86 ± 10.67 min
- Subjective appearance during the recovery period vs control dogs ([2]; 0.5 mg/kg SC during the preoperative period): tended to look less anxious
- Recovery Score Mean ± SD ([2]; 0.5 mg/kg SC, VAS 0=smooth, 10=rough, beagle dogs): 3.46 ± 1.54 cm
- Treated dogs that received visual analog scores of less than 5 cm ([2]; 0.5 mg/kg SC, control dogs 4 out of 8): 7 out of 7

From US20070155782A1, “Nk-1 receptor antagonists anesthesia recovery” (priority 2004, published 2007)
